pEC50: −log10 of the molar value.
Columns and labels:
HCV Genotype 1A Replicon = assay: Replicon assay, genotype 1a subgenomic replicon, luciferase readout; type: cell-based; settings: Hepatitis C virus, 48 h, Table 3; luciferase activity after 48 hours
Experimental: (§1) Compounds were assayed for activity against HCV using the genotype 1a and 1b subgenomic replicon model systems. Stable cell lines bearing the genotype 1a and 1b replicons were used for screening of compounds. Both replicons are bicistonic and contain the firefly luciferase gene. The ET cell line is stably transfected with RNA transcripts harboring a I389luc-ubi-neo/NS3-3′/ET replicon with firefly luciferase-ubiquitin-neomycin phosphotransferase fusion protein and EMCV-IRES driven NS3-5B polyprotein containing the cell culture adaptive mutations (E1202G; T12801; K1846T) (Krieger at al, 2001 and unpublished). The genotype 1a replicon is a stable cell line licensed from Apath LLC, modified to contain the firefly luciferase gene. The cells were grown in DMEM, supplemented with 10% fetal calf serum, 2 mM Glutamine, Penicillin (100 IU/mL)/Streptomycin (100 μg/mL), 1× nonessential amino acids, and 250-500 μg/mL G418 (“Geneticin”). They were all available through Life Technologies (Bethesda, Md.). The cells were plated at 0.5×10^4 cells/well in 384 well plates containing compounds. The final concentration of compounds ranged between 0.03 μM to 50 μm and the final DMSO concentration of 0.5-1%.
(§2) Luciferase activity was measured 48 hours later by adding a Steady glo (Promega, Madison, Wis.). Percent inhibition of replication data was plotted relative to no compound control. Under the same condition, cytotoxicity of the compounds was determined using cell titer glo (Promega, Madison, Wis). IC50s were determined from a 10 point dose response curve using 3-4-fold serial dilution for each compound, which spans a concentration range >1000 fold. BioAssay determines the level of inhibition for each compound by normalizing cross-talk corrected plate values against the negative […] controls to determine Percent Inhibition:
(§3) These normalized values are exported to EC50 where they are plotted against the molar compound concentrations using the standard four parameter logistic equation: […]
(§4) Some EC50 measurements were repeated a second time and for both 1A and 1B genotypes after those reported in Table 2 for compounds 101-108 and the repeated data was reported in Table 3.

HCV Genotype 1B Replicon = assay: Replicon assay, genotype 1b subgenomic replicon (ET cell line), luciferase readout; type: cell-based; settings: Hepatitis C virus, 48 h, Table 3; luciferase activity after 48 hours
Experimental: as §1, §2, §3, §4

| Compound | pEC50 (HCV Genotype 1A Replicon) | pEC50 (HCV Genotype 1B Replicon) |
| --- | --- | --- |
| CO[C@H]1CN(C(=O)c2nc3c(C(F)(F)F)cc(Br)cn3c2Cl)CC[C@@H]1N1CCOC1=O (racemic) [Compound 237, (±) trans-3-[1-{[6-bromo-3-chloro-8-(trifluoromethyl)imidazo[1,2-a]pyridin-2-yl]carbonyl}-3-(methyloxy)-4-piperidinyl]-1,3-oxazolidin-2-one] | ≤ 5.30 | ≤ 5.30 |
| CO[C@H]1CN(C(=O)c2nc3c(C(F)(F)F)cc(C4CC4)cn3c2Cl)CC[C@@H]1N1CCOC1=O (racemic) [Compound 238, (±) trans-3-[1-{[3-chloro-6-cyclopropyl-8-(trifluoromethyl)imidazo[1,2-a]pyridin-2-yl]carbonyl}-3-(methyloxy)-4-piperidinyl]-1,3-oxazolidin-2-one] | ≤ 5.30 | ≤ 5.30 |
| O=C(c1nc2c(C(F)(F)F)cc(C3CC3)cn2c1Cl)N1CC[C@@H](N2CCOC2=O)[C@H](O)C1 (single isomer, unassigned; enantiomer 1) [Compound 220, 3-((trans)-1-{[3-chloro-6-cyclopropyl-8-(trifluoromethyl)imidazo[1,2-a]pyridin-2-yl]carbonyl}-3-hydroxy-4-piperidinyl)-1,3-oxazolidin-2-one (Enantiomer 1)] | 7.70 | 7.52 |
| O=C1CN(C(=O)c2nc3c(C(F)(F)F)cc(C4CC4)cn3c2Cl)CC[C@@H]1N1CCOC1=O (stereo in doubt) [Compound 232, 1-{[3-chloro-6-cyclopropyl-8-(trifluoromethyl)imidazo[1,2-a]pyridin-2-yl]carbonyl}-4-(2-oxo-1,3-oxazolidin-3-yl)-3-piperidinone] | 7.22 | 7.10 |
| O=C(c1nc2c(C(F)(F)F)cccn2c1Cl)N1CCC(N2CCCC2=O)CC1 [Compound 109, 1-(1-{[3-chloro-8-(trifluoromethyl)imidazo[1,2-a]pyridin-2-yl]carbonyl}-4-piperidinyl)-2-pyrrolidinone] | 4.42 | 4.55 |
| O=C(c1nc2c(C(F)(F)F)cc(Cl)cn2c1Cl)N1CCC(N2CCCC2=O)CC1 [Compound 110, 1-(1-{[3,6-dichloro-8-(trifluoromethyl)imidazo[1,2-a]pyridin-2-yl]carbonyl}-4-piperidinyl)-2-pyrrolidinone] | 5.76 | 6.10 |
| O=C(c1nc2c(C(F)(F)F)cccn2c1Cl)N1CCC(N2CCOC2=O)CC1 [Compound 111, 3-(1-{[3-chloro-8-(trifluoromethyl)imidazo[1,2-a]pyridin-2-yl]carbonyl}-4-piperidinyl)-1,3-oxazolidin-2-one] | ≤ 5.30 | 4.93 |
| O=C(c1nc2c(C(F)(F)F)cc(Cl)cn2c1Cl)N1CCC(N2CCOC2=O)CC1 [Compound 112, 3-(1-{[3,6-dichloro-8-(trifluoromethyl)imidazo[1,2-a]pyridin-2-yl]carbonyl)-4-piperidinyl)-1,3-oxazolidin-2-one] | 6.89 | 6.77 |
| O=C(c1nc2c(C(F)(F)F)cc(-c3ccncc3)cn2c1Cl)N1CCC(N2CCOC2=O)CC1 [Compound 113] | 6.13 | 5.02 |
| O=C(c1nc2c(C(F)(F)F)cc(-c3cccc(F)c3)cn2c1Cl)N1CCC(N2CCOC2=O)CC1 [Compound 114] | 7.52 | 6.51 |
| O=C(c1nc2c(C(F)(F)F)cc(-c3ccc(F)cc3)cn2c1Cl)N1CCC(N2CCOC2=O)CC1 [Compound 115, 3-(1-{[3-chloro-6-(4-fluorophenyl)-8-(trifluoromethyl)imidazo[1,2-a]pyridin-2-yl]carbonyl}-4-piperidinyl)-1,3-oxazolidin-2-one] | 7.22 | 5.43 |
| COc1ccccc1-c1cc(C(F)(F)F)c2nc(C(=O)N3CCC(N4CCOC4=O)CC3)c(Cl)n2c1 [Compound 116] | 6.44 | 5.13 |
| COc1cccc(-c2cc(C(F)(F)F)c3nc(C(=O)N4CCC(N5CCOC5=O)CC4)c(Cl)n3c2)c1 [Compound 117] | 6.33 | 5.60 |
| COc1ccc(-c2cc(C(F)(F)F)c3nc(C(=O)N4CCC(N5CCOC5=O)CC4)c(Cl)n3c2)cc1 [Compound 118] | 6.82 | 4.75 |
| O=C(c1nc2c(C(F)(F)F)cc(-c3ccsc3)cn2c1Cl)N1CCC(N2CCOC2=O)CC1 [Compound 119] | 8.00 | 7.30 |
| O=C(c1nc2c(C(F)(F)F)cc(-c3cccc4cccnc34)cn2c1Cl)N1CCC(N2CCOC2=O)CC1 [Compound 120] | 6.54 | 4.44 |

| Compound | pEC50 (HCV Genotype 1A Replicon) | pEC50 (HCV Genotype 1B Replicon) |
| --- | --- | --- |
| O=C(c1nc2c(C(F)(F)F)cc(-c3ccccc3O)cn2c1Cl)N1CCC(N2CCOC2=O)CC1 [Compound 121] | 6.36 | 5.55 |
| O=C(c1nc2c(C(F)(F)F)cc(-c3cccc(O)c3)cn2c1Cl)N1CCC(N2CCOC2=O)CC1 [Compound 122] | 5.63 | 4.80 |
| O=C(c1nc2c(C(F)(F)F)cc(-c3ccc(O)cc3)cn2c1Cl)N1CCC(N2CCOC2=O)CC1 [Compound 123] | 7.52 | 6.42 |
| Cn1cc(-c2cc(C(F)(F)F)c3nc(C(=O)N4CCC(N5CCOC5=O)CC4)c(Cl)n3c2)cn1 [Compound 124] | 7.52 | 5.46 |
| CCn1cc(-c2cc(C(F)(F)F)c3nc(C(=O)N4CCC(N5CCOC5=O)CC4)c(Cl)n3c2)cn1 [Compound 125] | 7.05 | 4.87 |
| CC(C)Cn1cc(-c2cc(C(F)(F)F)c3nc(C(=O)N4CCC(N5CCOC5=O)CC4)c(Cl)n3c2)cn1 [Compound 126, 3-(1-{[3-chloro-6-[1-(2-methylpropyl)-1H-pyrazol-4-yl]-8-(trifluoromethyl)imidazo[1,2-a]pyridin-2-yl]carbonyl}-4-piperidinyl)-1,3-oxazolidin-2-one] | 4.86 | ≤ 4.30 |
| O=C(c1nc2c(C(F)(F)F)cc(C3CCCC3)cn2c1Cl)N1CCC(N2CCOC2=O)CC1 [Compound 127, 3-(1-{[3-chloro-6-cyclopentyl-8-(trifluoromethyl)imidazo[1,2-a]pyridin-2-yl]carbonyl}-4-piperidinyl)-1,3-oxazolidin-2-one] | 8.00 | 6.77 |
| O=C(c1nc2c(C(F)(F)F)cc(C3CCC3)cn2c1Cl)N1CCC(N2CCOC2=O)CC1 [Compound 128, 3-(1-{[3-chloro-6-cyclobutyl-8-(trifluoromethyl)imidazo[1,2-a]pyridin-2-yl]carbonyl}-4-piperidinyl)-1,3-oxazolidin-2-one] | 8.00 | 7.52 |
| CCCc1cc(C(F)(F)F)c2nc(C(=O)N3CCC(N4CCOC4=O)CC3)c(Cl)n2c1 [Compound 129, 3-(1-{[3-chloro-6-propyl-8-(trifluoromethyl)imidazo[1,2-a]pyridin-2-yl]carbonyl}-4-piperidinyl)-1,3-oxazolidin-2-one] | 7.70 | 6.92 |
| CC(C)Cc1cc(C(F)(F)F)c2nc(C(=O)N3CCC(N4CCOC4=O)CC3)c(Cl)n2c1 [Compound 130, 3-(1-{[3-chloro-6-(2-methylpropyl)-8-(trifluoromethyl)imidazo[1,2-a]pyridin-2-yl]carbonyl}-4-piperidinyl)-1,3-oxazolidin-2-one] | 7.70 | 7.30 |
| CCCCc1cc(C(F)(F)F)c2nc(C(=O)N3CCC(N4CCOC4=O)CC3)c(Cl)n2c1 [Compound 131] | 8.00 | 6.15 |
| COc1cc(C(F)(F)F)c2nc(C(=O)N3CCC(N4CCOC4=O)CC3)c(Cl)n2c1 [Compound 132, 3-(1-{[3-chloro-6-(methyloxy)-8-(trifluoromethyl)imidazo[1,2-a]pyridin-2-yl]carbonyl}-4-piperidinyl)-1,3-oxazolidin-2-one] | 6.89 | 6.68 |
| Cc1ccc(-c2cc(C(F)(F)F)c3nc(C(=O)N4CCC(N5CCOC5=O)CC4)c(Cl)n3c2)o1 [Compound 133] | 6.96 | 5.43 |
| O=C(c1nc2c(C(F)(F)F)cc(C3CCCO3)cn2c1Cl)N1CCC(N2CCOC2=O)CC1 (stereo not shown) [Compound 134, 3-(1-{[3-chloro-6-(tetrahydro-2-furanyl)-8-(trifluoromethyl)imidazo[1,2-a]pyridin-2-yl]carbonyl}-4-piperidinyl)-1,3-oxazolidin-2-one] | 6.49 | 5.66 |
| CCOc1cc(C(F)(F)F)c2nc(C(=O)N3CCC(N4CCOC4=O)CC3)c(Cl)n2c1 [Compound 135, 3-(1-{[3-chloro-6-(ethyloxy)-8-(trifluoromethyl)imidazo[1,2-a]pyridin-2-yl]carbonyl}-4-piperidinyl)-1,3-oxazolidin-2-one] | 7.15 | 6.66 |
| O=C(c1nc2c(C(F)(F)F)cc(-c3cccnc3)cn2c1Cl)N1CCC(N2CCOC2=O)CC1 [Compound 136, 3-(1-{[3-chloro-6-(3-pyridinyl)-8-(trifluoromethyl)imidazo[1,2-a]pyridin-2-yl]carbonyl}-4-piperidinyl)-1,3-oxazolidin-2-one] | 6.49 | 5.74 |
